Laboratory results from US12636810B2, “Wood preservative composition comprising 4,5-dichloro-2-octylisothiazol-3(2H)-one, a method treating a wood substrate therewith, and a wood product produced therefrom” (KOPPERS PERFORMANCE CHEMICALS, INC., priority 2021, dated 2026).

Assay: Organic solvent solvency with DCOI and retaining additive testing
Assay type: physicochemical
Set-up: key: Low: low solvency; Medium: medium solvency; High: high solvency
Conditions: 23.5% DCOI and 25.0% Chempol 801-2164 in the solvent; 40 degrees Fahrenheit; separation, precipitation, turbidity
Procedure: For testing the solvency (i.e., ability to dissolve) of the organic solvent for DCOI and the retaining additive, 4.7 gram of DCOI and 5.0 g of retaining additive were dissolved in 10.3 gram of organic solvent to make a 23.5% of DCOI and 25.0% resin solution in a clear 20 ml glass vial. Thereafter, the vial is stored at a selected temperature (i.e., ambient temperature, 40 degrees Fahrenheit, or 120 degree Fahrenheit or whenever a crosslinking may occur). The vial is monitored for up to 7 days for phase separation, precipitation, and turbidity, which may indicate incompatibility between the organic solvent and the retaining additive and/or DCOI. The as prepared solution is maintained at room temperature and 40 degrees Fahrenheit for up to 7 days or whenever a phase separation, precipitation or solution turbidity event happens to disqualify the solution.
The solvents were tested at 40 degrees Fahrenheit and rated low solvency, medium solvency, or high solvency based on the amount, if any, of separation, precipitation, and turbidity observed in each solution.

Q: With `OCc1ccccc1` [Benzyl Alcohol] as the compound, how does the “DCOI/Resin Solvency” value read?
A: High
